Entries after “also recorded” stand apart in the source; their conditions may differ. Like-named read-outs stand apart in the source and are kept apart here.
Experiments:
[1] = tested on: breast adenocarcinoma (MCF7); test: Cytotoxicity assay (resazurin reduction, 48 h), MCF7; format: cell-based, human
Description: (§1) Human lung carcinoma (A549, ATCC # CCL-185™), human colorectal adenocarcinoma (DLD-1, ATCC # CCL-221™), human breast adenocarcinoma (MCF7, ATCC # HTB-22™), human prostate adenocarcinoma (PC-3, ATCC # CCL-1435™) and human normal skin fibroblasts (WS1, ATCC # CRL-1502™) cell lines were obtained from the American Type Culture Collection (ATCC). All cell lines were cultured in minimum essential medium containing Earle's salts and L-glutamine (Mediatech Cellgro, VA), to which were added 10% fetal bovine serum (Hyclone), vitamins (1×), penicillin (100 IU/mL) and streptomycin (100 μg/mL), essential amino acids (1×), and sodium pyruvate (1×) (Mediatech Cellgro, VA). Cells were kept at 37° C. in a humidified environment containing 5% CO2.
(§2) Exponentially growing cells were plated in 96-well microplates (Costar, Corning Inc.) at a density of 5×10^3 cells per well in 100 μL of culture medium and were allowed to adhere for 16 h before treatment. Increasing concentrations of each compound in biotechnology performed certified dimethyl sulfoxide (DMSO) (Sigma-Aldrich, Cat. # D2438) and the cells were incubated for 48 h. The final concentration of DMSO in the culture medium was maintained at 0.5% (v/v) to avoid solvent toxicity. Cytotoxicity was assessed using resazurin (O'Brien, J. et al., 2000. Eur J Biochem 267(17): 5421-6) on an automated 96-well Fluoroskan Ascent F1™ plate reader (Labsystems) using excitation and emission wavelengths of 530 and 590 nm, respectively. Fluorescence was proportional to the cellular metabolic activity in each well. Survival percentage was defined as the fluorescence in experimental wells compared to that in control wells after subtraction of blank values. Each experiment was carried out twice in triplicate. IC50 results are expressed as mean±standard deviation.
(§3) In vitro cytotoxic activity of lupane-type bidesmosidic saponins was evaluated against four human cancer cell lines including lung carcinoma (A549), and colorectal (DLD-1), breast (MCF7) and prostate (PC-3) adenocarcinomas. The parent triterpenoids betulin (1) (Gauthier et al., 2006, supra), betulinic acid (2) (Kessler, J. H. et al., Cancer Lett. 2007, 251: 132-145) and the clinically used etoposide were used as positive controls. The cytotoxicity of 28-O-β-D-glucopyranosides of betulin (Gauthier et al., 2006, supra) and betulinic acid (Baglin et al., 2003, supra) was also investigated. The cell viability was assessed through resazurin reduction test (O'Brien et al, 2000, supra) after 48 hours of incubation between the compounds and cells. Since resazurin (Alamar blue) is a nontoxic dye, measurements can be obtained without killing the cells as opposed to the standard MTT assay (Bellamy, W. T. Drugs 1992, 44: 690-708). The cytotoxicity results were expressed as the concentration inhibiting 50% of the cell growth (IC50).

lung carcinoma (A549) [2] = test: Cytotoxicity assay (resazurin reduction, 48 h), A549; format: cell-based, human
Description: as §1, §2, §3

[3] = tested on: colorectal adenocarcinoma (DLD-1); test: Cytotoxicity assay (resazurin reduction, 48 h), DLD-1; format: cell-based; conditions: mean ± SD
Description: as §1, §2, §3

[4] = tested on: prostate adenocarcinoma (PC-3); test: Cytotoxicity assay (resazurin reduction, 48 h), PC-3; format: cell-based, human
Description: as §1, §2, §3

[5] = tested on: tested cancer cell lines (A549, DLD-1, MCF7, PC-3); test: Cytotoxicity assay (resazurin reduction, 48 h), summary over the tested cancer cell lines; format: cell-based, human; conditions: for cytotoxicity compared with reference or other tested compounds: tested cancer cell lines, P<0.05 where stated; for IC50: range or bound over the cell lines, read-out: IC50 against the tested cancer cell lines
Description: as §1, §2
as §3, with “The cytotoxicity results were expressed as the concentration inhibiting 50% of the cell growth (IC50).” left out

lung carcinoma (A549) [6] = conditions: human lung carcinoma; footnote g: previously reported in Gauthier et al. 2006; cited from earlier work
[7] = tested on: colorectal adenocarcinoma (DLD-1); conditions: human colorectal adenocarcinoma; footnote g: previously reported in Gauthier et al. 2006; cited from earlier work
[8] = human breast adenocarcinoma, 48 h, resazurin, mean ± SD, read-out: IC50 MCF7
[9] = human lung carcinoma, 48 h, resazurin, mean ± SD
[10] = human colorectal adenocarcinoma
[11] = human prostate adenocarcinoma, 48 h, resazurin, mean ± SD, read-out: IC50 PC-3

| Compound | IC50 [1, 8] [µM] | IC50 (lung carcinoma (A549) [2]; [9]) [µM] | IC50 [3, 10] [µM] | IC50 [4, 11] [µM] | also measured |
| --- | --- | --- | --- | --- | --- |
| 28-O-α-L-Rhamnopyranosyl betulinic acid 3β-O-α-L-rhamnopyranoside [Compound 22b] | 6 ± 0.6 | 7.2 ± 0.5 | 7.3 ± 0.3 | 7.2 ± 0.5 | cytotoxicity compared with reference or other tested compounds [5]: significantly more active than their parent triterpenoids |
| 28-O-β-D-Glucopyranosyl betulin 313-O-α-L-rhamnopyranoside [Compound 16b] | 9 ± 0.7 | 16.8 ± 0.9 | 10.6 ± 0.9 | 6.9 ± 0.4 |  |
| 28-O-β-D-Glucopyranosyl betulin [Compound 28GBet, reference compound] | > 100 |  | > 100 | > 100 | IC50 (lung carcinoma (A549) [6]): > 100 µM |
| C=C(C)[C@@H]1CC[C@]2(C(=O)O)CC[C@]3(C)[C@H](CC[C@@H]4[C@@]5(C)CC[C@H](O)C(C)(C)[C@@H]5CC[C@]43C)[C@@H]12 [Compound 2, Betulinic acid] | 41 ± 1 |  |  | 40 ± 2 | IC50 [7]: 15 µM; IC50 (lung carcinoma (A549) [6]): 10.3 ± 0.4 µM |
| C=C(C)[C@@H]1CC[C@]2(C(=O)O[C@@H]3O[C@H](CO)[C@@H](O)[C@H](O)[C@H]3O)CC[C@]3(C)[C@H](CC[C@@H]4[C@@]5(C)CC[C@H](O[C@@H]6OC[C@H](O)[C@H](O)[C@H]6O)C(C)(C)[C@@H]5CC[C@]43C)[C@@H]12 [Compound 3, 28-O-β-D-Glucopyranosyl betulinic acid 3β-O-α-L-arabinopyranoside] | 23 ± 1 | 76 ± 4 | 60 ± 5 | 68 ± 7 | IC50 [5]: 23 to 76 µM |
| C=C(C)[C@@H]1CC[C@]2(CO[C@@H]3O[C@H](CO)[C@@H](O)[C@H](O)[C@H]3O)CC[C@]3(C)[C@H](CC[C@@H]4[C@@]5(C)CC[C@H](O[C@@H]6OC[C@H](O)[C@H](O)[C@H]6O)C(C)(C)[C@@H]5CC[C@]43C)[C@@H]12 [Compound 16a, 28-O-β-D-Glucopyranosyl betulin 313-O-α-L-arabinopyranoside] |  | > 100 | 19 ± 2 |  | IC50 ([1]; breast adenocarcinoma (MCF7), read-out: IC50 against MCF7): 9.5 µM; IC50 ([4]; PC-3 cell line, read-out: IC50 against PC-3): 5.3 µM |
| C=C(C)[C@@H]1CC[C@]2(C(=O)O[C@@H]3O[C@H](CO)[C@@H](O)[C@H](O)[C@H]3O)CC[C@]3(C)[C@H](CC[C@@H]4[C@@]5(C)CC[C@H](O[C@@H]6O[C@@H](C)[C@H](O)[C@@H](O)[C@H]6O)C(C)(C)[C@@H]5CC[C@]43C)[C@@H]12 [Compound 19, 28-O-β-D-Glucopyranosyl betulinic acid 3β-O-α-L-rhamnopyranoside] | 5.7 ± 0.6 | 23 ± 1 | 11 ± 0.5 | 11.2 ± 0.8 |  |
| C=C(C)[C@@H]1CC[C@]2(CO[C@@H]3O[C@H](CO)[C@@H](O)[C@H](O)[C@H]3O)CC[C@]3(C)[C@H](CC[C@@H]4[C@@]5(C)CC[C@H](O[C@@H]6O[C@H](CO)[C@@H](O)[C@H](O)[C@H]6O)C(C)(C)[C@@H]5CC[C@]43C)[C@@H]12 [Compound 21a, 28-O-β-D-Glucopyranosyl betulin 3β-O-β-D-glucopyranoside] | 14.5 ± 0.9 | > 100 | 27 ± 2 | > 100 | cytotoxicity compared with betulinic acid, MCF7 ([1]; breast adenocarcinoma (MCF7)): significantly more active than betulinic acid (2) |
| C=C(C)[C@@H]1CC[C@]2(C(=O)O[C@@H]3O[C@H](CO)[C@@H](O)[C@H](O)[C@H]3O)CC[C@]3(C)[C@H](CC[C@@H]4[C@@]5(C)CC[C@H](O[C@@H]6O[C@H](CO)[C@@H](O)[C@H](O)[C@H]6O)C(C)(C)[C@@H]5CC[C@]43C)[C@@H]12 [Compound 21b, 28-O-β-D-Glucopyranosyl betulinic acid 3β-O-β-D-glucopyranoside] | 20 ± 2 | > 100 | > 100 | 66 ± 3 | cytotoxicity compared with betulinic acid, MCF7 ([1]; breast adenocarcinoma (MCF7)): significantly more active than betulinic acid (2) |
| C=C(C)[C@@H]1CC[C@]2(CO[C@@H]3O[C@@H](C)[C@H](O)[C@@H](O)[C@H]3O)CC[C@]3(C)[C@H](CC[C@@H]4[C@@]5(C)CC[C@H](O[C@@H]6O[C@@H](C)[C@H](O)[C@@H](O)[C@H]6O)C(C)(C)[C@@H]5CC[C@]43C)[C@@H]12 [Compound 22a, 28-O-α-L-Rhamnopyranosyl betulin 3β-O-α-L-rhamnopyranoside] | 1.7 ± 0.2 | 1.9 ± 0.1 | 1.9 ± 0.1 | 1.8 ± 0.1 | IC50 [5]: 1.7 to 1.9 µM; cytotoxicity compared with reference or other tested compounds [5]: significantly more active than their parent triterpenoids; also recorded: the most potent of all tested compounds |
| C=C(C)[C@@H]1CC[C@]2(C(=O)O[C@@H]3O[C@H](CO)[C@@H](O)[C@H](O)[C@H]3O)CC[C@]3(C)C(CC[C@@H]4[C@@]5(C)CC[C@H](O)C(C)(C)[C@@H]5CC[C@]43C)[C@H]12 (stereo partly drawn) [Compound 28GBetA, 28-O-β-D-glucopyranosyl betulinic acid, reference compound] | > 100 | > 100 | > 100 | > 100 |  |
| COc1cc([C@@H]2c3cc4c(cc3[C@@H](O[C@@H]3O[C@@H]5CO[C@@H](C)O[C@H]5[C@H](O)[C@H]3O)[C@H]3COC(=O)[C@H]23)OCO4)cc(OC)c1O [Etoposide, etoposide, reference compound] |  |  |  |  | IC50 (lung carcinoma (A549) [2]; A549, human lung carcinoma, 48 h, resazurin, mean ± SD): 3.4 ± 0.1 µM; IC50 ([3]; DLD-1, human colorectal adenocarcinoma): 27 ± 5 µM |
| betulinic acid 3 β-O-α-L-rhamnopyranoside [reference compound] |  |  |  |  | IC50 (lung carcinoma (A549) [2]; A549, comparator named in text): 3.8 µM |
